Like-named read-outs stand apart in the source and are kept apart here.
Columns and labels:
Assay in all cases: MBIC/MIC secondary assay
Type in all cases: cell-based, Staphylococcus aureus
[1] = system: S. aureus strain NRS-77; settings: for MIC: Staphylococcus aureus, NRS77
Procedure: Assays for detecting and measuring bacterial biofilm formation are known in the art. An example of a biofilm formation assay useful in detecting and characterizing biofilm inhibitor compounds is described in Example 1, infra. Briefly, bacterial cells are inoculated into growth medium in individual wells of a 96-well assay plate in the presence or absence of a compound (known biofilm inhibitor or test compound). After incubation for a specified time, growth medium and non-biofilm bacterial cells are removed from each of the wells. The bacterial cells in any biofilms that are adhered to the surface of a well are fixed by addition of ethanol. The ethanol is removed, and the fixed biofilm bacteria cells are stained with crystal violet (CV). The intensity of CV staining is directly correlated with bacterial biofilm formation and is measured in the wells by reading the optical density at 600 nm (OD600). The difference in biofilm formation between untreated control and treated cultures provides an indication of relative biofilm inhibition activity (anti-biofilm activity). Use of different concentrations of an inhibitor in multiple and otherwise duplicate cultures permits determination of a compound's Minimal Biofilm Inhibitory Concentration (MBIC), which is defined herein as the lowest concentration of a compound that inhibits biofilm formation by at least 80% (i.e., ≧80%) compared to untreated control cultures. […]
(§1) A secondary assay provided a quantitative measure of both anti-biofilm activity and antibacterial activity in terms of the Minimal Biofilm Inhibitory Concentration (MBIC) and the Minimal Inhibitory Concentration (MIC), respectively. The MBIC and MIC are defined as the lowest compound concentrations that inhibit biofilm formation and bacterial growth, respectively, by at least 80% (i.e., ≧80%). The MBIC/MIC assay is formatted in a manner that is similar to the Microbroth dilution assays described by the Clinical and Laboratory Standards Institute (CLSI; formerly NCCLS) in protocol M7-A7. The growth conditions were optimized for biofilm growth in 96-well assay plates such that the resulting CV staining was within the linear range of detection. Therefore, the MBIC/MIC assay provided a stringent measure of anti-biofilm activity.
The assay was adapted for several biofilm-forming strains of S. epidermidis, S. aureus, Enterococcus faecalis, and Pseudomonas aeruginosa. Briefly, 96-well assay plates contained a two-fold dilution series for up to 8 compounds (one compound/row) and untreated controls (concentration range of 0.2 μM-100 μM). The assay plates were inoculated with the test bacterial species, e.g., S. epidermidis 18972 (0.5×TSB, 0.25% glucose) or S. aureus ATCC 35556 (0.5×TSB, 1% glucose). The inocula were prepared by diluting an overnight culture 1:100 in fresh media, which corresponds to approximately 5×10^6 cells/well. After inoculation, the assay plates were sealed with foil tape and incubated for 18 h-20 h at 37° C. The assay plates were processed, and the percent inhibition of growth (% INH-Growth) and percent inhibition of biofilm formation (% INH-Biofilm) were calculated as described above. […] Compounds with an MBIC≦10 μM and an MIC/MBIC ratio≧8 for either S. epidermidis or S. aureus were designated as validated hits.
Minimal Biofilm Inhibitory Concentration (MBIC) and Minimal Inhibitory Concentration (MIC) of the compounds in Table 3 were determined against various strains of biofilm-forming bacteria.

[2] = system: methicillin-susceptible S. aureus (MSSA); settings: for MIC: Staphylococcus aureus
Procedure: (§2) Assays for detecting and measuring bacterial biofilm formation are known in the art. An example of a biofilm formation assay useful in detecting and characterizing biofilm inhibitor compounds is described in Example 1, infra. Briefly, bacterial cells are inoculated into growth medium in individual wells of a 96-well assay plate in the presence or absence of a compound (known biofilm inhibitor or test compound). After incubation for a specified time, growth medium and non-biofilm bacterial cells are removed from each of the wells. The bacterial cells in any biofilms that are adhered to the surface of a well are fixed by addition of ethanol. The ethanol is removed, and the fixed biofilm bacteria cells are stained with crystal violet (CV). The intensity of CV staining is directly correlated with bacterial biofilm formation and is measured in the wells by reading the optical density at 600 nm (OD600). The difference in biofilm formation between untreated control and treated cultures provides an indication of relative biofilm inhibition activity (anti-biofilm activity). Use of different concentrations of an inhibitor in multiple and otherwise duplicate cultures permits determination of a compound's Minimal Biofilm Inhibitory Concentration (MBIC), which is defined herein as the lowest concentration of a compound that inhibits biofilm formation by at least 80% (i.e., ≧80%) compared to untreated control cultures.
(§3) A higher throughput was achieved by formatting the assay for use in flat-bottomed 96-well assay plates (Costar 3590 assay plates, Corning Life Sciences, Lowell, Mass.). The biofilm cultures grew on the bottoms of each well in a surface attached mode. In each assay plate, columns 1 and 12 contained untreated cultures, which served as negative controls (0% biofilm inhibition). Each of the assay wells in columns 2-11 contained a unique small molecule from the Microbiotix Screening Library (MSL) at a final concentration of 100 μM. Assay plates were inoculated with 200 μl/well of a culture of Staphylococcus pidermidis 18972 in 0.5×Tryptic Soy Broth (TSB; Becton Dickinson, Franklin Lakes, N.J.) in which the concentration of glucose was adjusted to 0.25% (w/v). The bacterial inocula were prepared by making a 1:100 dilution of an overnight culture grown in TSB in the media used for the screen. After inoculation, assay plates were sealed with foil tape and incubated at 37° C. for 18-20 hours (h). The optical density at 600 nm (OD600) was measured for each well using a VICTOR2V™ multiplate reader (Perkin Elmer, Waltham, Mass.) in order to quantify overall bacterial growth. The assay plates were processed to remove bacterial growth media and non-biofilm cells from the bottom of each assay well. This was accomplished by using a BioTek ELx405™ plate washer (BioTek Instruments, Inc., Winooski, Vt.). Biofilm bacteria were fixed by addition of 50 μl of 95% ethanol for 30 minutes (min). The ethanol was removed, and the fixed biofilm cultures were stained with 50 μl of 0.06% crystal violet (CV) for 60 min. Excess CV was removed by repeated washes using the BioTek ELx405™ plate washer. The amount of CV bound to each assay well was quantified by measuring OD600 using a VICTOR2V™ plate reader (Perkin Elmer).
as §1, with “Therefore, the MBIC/MIC assay provided a stringent measure of anti-biofilm activity.” left out

[3] = system: S. aureus strain NRS-123; settings: for MIC: Staphylococcus aureus, NRS123
Procedure: as §2, §3
as §1, with “Therefore, the MBIC/MIC assay provided a stringent measure of anti-biofilm activity.” left out

In the case of `CCOc1cc(/C=C2\SC(=S)N(c3ccc(F)cc3)C2=O)ccc1O` [Compound 4, 3-(4-fluorophenyl)-5-(3-ethoxy-4-hydroxybenzylidene)-2-thioxothiazolidin-4-one], the MBIC ([1]; S. aureus strain NRS-77) was 25 µM, the MIC [1] was no less than 100 µM and the MBIC ([2]; S. aureus strain MSSA) was 12.5 µM. For the same molecule, the MIC ([2]; MSSA) was no less than 100 µM, the MBIC ([3]; S. aureus strain NRS-123) was 25 µM and the MIC [3] was no less than 100 µM.
`CCOc1cc(/C=C2\SC(=S)N(c3cccc(F)c3)C2=O)ccc1O` [Compound 8, 3-(3-fluorophenyl)-5-(3-ethoxy-4-hydroxybenzylidene)-2-thioxothiazolidin-4-one] gave an MBIC ([1]; S. aureus strain NRS-77) of 25 µM, an MIC [1] of no less than 100 µM and an MBIC ([2]; S. aureus strain MSSA) of 25 µM. It also gave an MIC ([2]; MSSA) of no less than 100 µM, an MBIC ([3]; S. aureus strain NRS-123) of 25 µM and an MIC [3] of no less than 100 µM.
Work on `C=CCOc1cc(/C=C2\SC(=S)N(c3ccc(F)cc3)C2=O)ccc1O` [Compound 29, 3-(4-fluorophenyl)-5-(3-allyloxy-4-hydroxybenzylidene)-2-thioxothiazolidin-4-one] yielded an MBIC ([1]; S. aureus strain NRS-77) of 12.5 µM, an MIC ([1]; S. aureus strain NRS-77, read-out: MIC) of no less than 100 µM and an MBIC ([2]; S. aureus strain MSSA) of 12.5 µM. It also gave an MIC ([2]; S. aureus strain MSSA, read-out: MIC) of no less than 100 µM, an MBIC ([3]; S. aureus strain NRS-123) of 25 µM and an MIC ([3]; S. aureus strain NRS-123, read-out: MIC) of no less than 100 µM.
`CCOc1cc(/C=C2\SC(=S)N(c3cccc(C#N)c3)C2=O)ccc1O` [Compound 34, 3-(3-cyanophenyl)-5-(3-ethoxy-4-hydroxybenzylidene)-2-thioxothiazolidin-4-one] was tested, and the MBIC ([1]; S. aureus strain NRS-77) was 12.5 µM, the MIC [1] was no less than 100 µM and the MBIC ([2]; S. aureus strain MSSA) was 12.5 µM. The MIC ([2]; MSSA) was no less than 100 µM, the MBIC ([3]; S. aureus strain NRS-123) was 25 µM and the MIC [3] was no less than 100 µM.
`CCOc1cc(/C=C2\SC(=S)N(c3cccnc3)C2=O)ccc1O` [Compound 36, 3-(pyridin-3-yl)-5-(3-ethoxy-4-hydroxybenzylidene)-2-thioxothiazolidin-4-one] gave an MBIC ([1]; S. aureus strain NRS-77) of 12.5 µM, an MIC [1] of no less than 100 µM and an MBIC ([2]; S. aureus strain MSSA) of 12.5 µM. The MIC ([2]; MSSA) was no less than 100 µM, the MBIC ([3]; S. aureus strain NRS-123) was 12.5 µM and the MIC [3] was no less than 100 µM.
`CCOc1cc(/C=C2\SC(=S)N(c3ccc(F)nc3)C2=O)ccc1O` [Compound 40, 3-(6-fluoropyridin-3-yl)-5-(3-ethoxy-4-hydroxybenzylidene)-2-thioxothiazolidin-4-one] gave an MBIC ([1]; S. aureus strain NRS-77) of 6.3 µM, an MIC [1] of no less than 100 µM and an MBIC ([2]; S. aureus strain MSSA) of 6.3 µM. The MIC ([2]; MSSA) was no less than 100 µM, the MBIC ([3]; S. aureus strain NRS-123) was 50 µM and the MIC [3] was no less than 100 µM.

Reference: patent US20110098323A1, “INHIBITORS OF BACTERIAL BIOFILM FORMATION” (MICROBIOTIX, INC., priority 2009, published 2011)
